Tested on: human A375 melanoma cells
Test: Tumor growth of human A375 melanoma cells implanted in SCID mice
Assay type: in vivo, mouse
Conditions: 19 days after palpable tumor formation, AKB-6899 17.5 mg/kg, Docetaxel 30 mg/kg
Protocol: During treatment, tumor growth was determined. Animals were treated with one the following combinations: vehicle/vehicle, vehicle/AKB-6899 (17.5 mg/kg), Docetaxel (30 mg/kg)/vehicle, or Docetaxel/AKB-6899. 19 days after palpable tumor formation, the tumors in the mice receiving the vehicle/AKB-6899 combination had tumors that were 74% the size of control; the tumors in the mice receiving Docetaxel/vehicle combination had tumors that were 49% the size of control; and the tumors in the mice receiving the Docetaxel/AKB-6899 combination had tumors that were 13% the size of control.

CC(=O)O[C@@]12CO[C@@H]1C[C@H](O)[C@@]1(C)C(=O)[C@H](O)C3=C(C)[C@@H](OC(=O)[C@H](O)[C@@H](NC(=O)OC(C)(C)C)c4ccccc4)C[C@@](O)([C@@H](OC(=O)c4ccccc4)[C@H]21)C3(C)C [Docetaxel, reference compound]
tumor size relative to control: 49%
